According to patent publication US20050009837A1, “Modulators of lipid metabolism and methods of use” (City of Hope, priority 2003, published 2005):

Legend:
[1] = system: SRE reporter (FAS proximal promoter); assay: SRE reporter (FAS proximal promoter-luciferase) assay in CV-1 cells; type: cell-based
Description: Since LXR regulates SREBP-1c expression, LXR also should regulate activities downstream of SREBP-1c. To test this, CV-1 cells were transiently transfected with as in Example 6, but with the SRE or the SREm reporter, SREBP-1c-dependent reporter constructs consisting of the FAS proximal promoter linked to the luciferase gene. […] See Wang et al., Mol. Cell 3:543-553, 1999, the disclosures of which are hereby incorporated by reference. Cells then were treated as in Example 6 with the indicated compounds, Clotrimazole or 25-hydroxycholesterol (25-OH cholesterol). 25-OH cholesterol is known to repress the synthesis of SREBP-1c and is therefore used to eliminate the effects of this transcription factor on the FAS promoter (SRE).

human LXRα = target: T1, human LXRα (Homo sapiens, UniProt Q13133); assay: Full-length hLXRα/hRXRα LXREx3 TK-Luc reporter assay in transfected CV-1 cells; type: cell-based; conditions: 20 μM, 40 hours
T1 construct: expressed in transfected cells; host or cells: CV-1 cells
T1 sequence (Q13133 1-447): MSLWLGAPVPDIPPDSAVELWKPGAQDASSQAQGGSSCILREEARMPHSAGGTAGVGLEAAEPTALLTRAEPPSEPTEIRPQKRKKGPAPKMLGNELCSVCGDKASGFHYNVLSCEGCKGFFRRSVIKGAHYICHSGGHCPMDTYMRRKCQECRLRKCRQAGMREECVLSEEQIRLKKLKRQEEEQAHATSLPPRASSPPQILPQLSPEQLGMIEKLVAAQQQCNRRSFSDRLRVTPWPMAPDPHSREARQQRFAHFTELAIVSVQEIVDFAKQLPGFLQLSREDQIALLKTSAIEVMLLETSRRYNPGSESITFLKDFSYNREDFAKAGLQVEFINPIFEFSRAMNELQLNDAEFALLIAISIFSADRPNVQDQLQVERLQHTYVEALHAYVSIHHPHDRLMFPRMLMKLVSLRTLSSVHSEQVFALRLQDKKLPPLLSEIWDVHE
T1 sequence (P19793 1-462 partner): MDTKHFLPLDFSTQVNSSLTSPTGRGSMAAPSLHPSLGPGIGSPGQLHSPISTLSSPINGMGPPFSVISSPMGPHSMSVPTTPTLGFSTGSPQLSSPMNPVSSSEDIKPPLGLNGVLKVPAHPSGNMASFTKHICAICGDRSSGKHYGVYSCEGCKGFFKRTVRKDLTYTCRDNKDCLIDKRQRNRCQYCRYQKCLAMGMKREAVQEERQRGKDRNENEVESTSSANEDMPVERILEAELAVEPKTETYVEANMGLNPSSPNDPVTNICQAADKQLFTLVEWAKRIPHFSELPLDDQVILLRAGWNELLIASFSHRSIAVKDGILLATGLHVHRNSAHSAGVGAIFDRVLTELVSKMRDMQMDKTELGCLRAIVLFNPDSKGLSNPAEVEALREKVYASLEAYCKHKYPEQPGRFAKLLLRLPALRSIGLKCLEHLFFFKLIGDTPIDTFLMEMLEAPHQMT
Description: CV-1 cells were grown in DMEM supplemented with 10% resin-charcoal stripped fetal bovine serum, 50 U/ml penicillin G and 50 μg/ml streptomycin sulfate at 37° C. in 5% CO2. Cells were plated to 50-80% confluence one day prior to transfection using phenol red-free DMEM-FBS. The cells were transfected by lipofection using N-[1-(2,3-dioleoyloxy)propyl]-N,N,N-ammonium methyl sulfate according to manufacturer's instructions (Boehringer Mannheim).
Genes encoding the following full-length proteins, which are suitable for use in the studies described herein, were cloned into pCMX: human RXRα (Gene Bank accession X52773) and human LXRα (GenBank accession U22662). The cells were transfected with CMX-βgal and luciferase constructs. The CMX-βGal construct contained the ligand binding domain of human RXR (hRXRα) and the ligand binding domain of human LXRα (hLXRα) as indicated in FIG. 1. The luciferase reporter construct (LXREx3 TK-Luc) contained the herpes virus thymidine kinase promoter (−105/+51) linked to three copies of the response element LXRE. After transfection, the cells were treated with 20 μM of a synthetic azole test compound or vehicle alone for 40 hours in phenol red-free DMEM-FBS.

SMILES	LXRα induction of SRE reporter activity ([1]; LXRα co-transfected (3-fold increase))	LXRβ induction of SRE reporter activity ([1]; LXRβ co-expression (almost 2-fold increase))	activity of reporter containing mutated SRE ([1]; SREm reporter)	repression of SRE reporter ([1]; absence of LXR) [%]	antagonism of constitutive activation mediated by LXR (hLXRα activity, LXREx3 TK-Luc) (human LXRα)
C[C@H](CCCC(C)(C)O)[C@H]1CC[C@H]2[C@@H]3CC=C4C[C@@H](O)CC[C@]4(C)[C@H]3CC[C@]12C [25-OH cholesterol, 25-hydroxycholesterol]	prevented this induction	prevented this induction	no significant effects	50	–
CC(=O)N1CCN(c2ccc(OCC3COC(Cn4ccnc4)(c4ccc(Cl)cc4Cl)O3)cc2)CC1 (centres unmarked) [ketonazole]	–	–	–	–	inactive
